Consider three compounds from US10898451B2 (Board of Regents of the University of Texas System, priority 2018, dated 2021).

In one data set the test system is anti-NMDAR encephalitis. In words: Case study: tramadol pre-treatment with therapeutic plasma exchange (PLEX) in a patient with anti-NMDAR encephalitis. It is filed as in vivo, human. The text has this: Described herein is a previously healthy person with newly diagnosed seizures and schizophrenia. […] At that time, they were started on solumedrol 1 g each day for five days along with the last two days of the steroid course being completed. […] Their anti-epileptic medications were escalated to include levetiracetam, phenobarbital, and lacosimide.
The assay used a semi-quantitative indirect immunofluorescence on human embryonic kidney cell cultures expressing recombinant NMDA receptors (transfected HEK 293 cells). […] NMDA receptor antibodies were not sent from their serum. […] Six days after their colectomy, PLEX was restarted for another five sessions.

For data set [1] the following is noted: oral formulation; Grond and Sablotzki 2004; cited from earlier work.
For data set [2] the following is noted: Grond and Sablotzki 2004; cited from earlier work.
Where [3] appears, read: PLEX in combination with tramadol 100 mg enterally three times a day.

On to `CNC1(c2ccccc2Cl)CCCCC1=O` (stereo not shown) [ketamine], for which the “facial dyskinesias during the first three PLEX sessions (without tramadol)” value in the data set on anti-NMDAR encephalitis (ketamine at 20 mcg/kg/min, patient obtunded and not following commands) was “minimal improvement”.
As to `C[C@H]1C[C@@H]2[C@H]([C@@H](O)C[C@@]3(C)[C@H]2CC[C@]3(O)C(=O)COC(=O)CCC(=O)O)[C@@]2(C)C=CC(=O)C=C12` [solumedrol], in the data set on anti-NMDAR encephalitis (solumedrol 1 g each day for five days), the “improvement of symptoms after steroid course” value is listed as “failed to improve any of their symptoms”.
Regarding `COc1cccc(C2(O)CCCCC2CN(C)C)c1` (stereo not shown) [tramadol, 2-(dimethylaminomethyl)-1-(3-methoxyphenyl)cyclohexanol], in the data set with anti-NMDAR encephalitis (setting [3]), the “facial dyskinesias by the end of the fifth PLEX session” value was “completely resolved”; the “following commands by the end of the third PLEX session” value was “began to follow commands”; the “level of consciousness by the end of the fifth PLEX session” value was “alert and awake enough to interact with their care providers”. Further, in the data set on anti-NMDAR encephalitis (conclusion of the case study), the “overall safety and efficacy in anti-NMDAR encephalitis” value was “safe and an effective treatment”. For the same compound, the “recurrence of symptoms at follow up” value with anti-NMDAR encephalitis (nine months after symptoms onset) is recorded as “has not had any recurrent symptoms”. The “facial dyskinesias after the first PLEX session” value in the data set on anti-NMDAR encephalitis (patient, tramadol 100 mg enterally three times a day, one hour before each of five PLEX sessions) is “resolved”. Further, in the data set on anti-NMDAR encephalitis (tramadol 100 mg enterally three times a day, one hour before each PLEX session), the “eye opening immediately following the first PLEX session” value is listed as “opened their eyes spontaneously”. For the same compound, in data set [1], the absorption result is recorded as “completely absorbed”, the “brain concentration versus plasma” value is “higher brain concentration than in plasma” and the peak onset result is reported as “approximately 60 min”. In addition, in data set [2], the “patients with serious side effects (hypotension, circulatory collapse, pruritis, sleep disorders, somnolence, abdominal pain, tachycardia)” value is reported as “less than 1%”.
